In patent publication US20090118135A1, “METHODS AND COMPOUNDS FOR REGULATING APOPTOSIS” (The Burnham Institute, priority 2007, published 2009):

Molecular target: T1, GST-Bfl-1 (Homo sapiens, UniProt Q16548)
T1 construct: lacking their C-terminal transmembrane domains (about the last 20 amino acids) (“ΔTM”); made in house; host or cells: XL-1 Blue E. coli, pGEX 4T-1
T1 sequence (Q16548 1-155 limits assumed): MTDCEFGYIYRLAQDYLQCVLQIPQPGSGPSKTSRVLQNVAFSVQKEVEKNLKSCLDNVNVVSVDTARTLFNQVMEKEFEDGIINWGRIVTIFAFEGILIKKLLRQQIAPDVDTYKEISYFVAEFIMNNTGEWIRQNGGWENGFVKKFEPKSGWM
Test: Bfl-1/FITC-Bid BH3 competitive fluorescence polarization assay
Assay type: binding
Details: primary HTS hits, MLSCN library (PubChem SIDs), Table 5B
Experimental: A FPA was performed to determine the binding affinity of FITC-Bid BH3 peptide to Bcl-2 proteins. […] IC50 determinations were performed using GraphPad Prism software (GraphPad, Inc., San Diego, Calif.). FPA competition assays were performed using the same procedure described above, except that 100 nM of GST-Bfl-1 protein in a volume of 45 μl was incubated with 5 μl (50 μM) test compounds in DMSO per well for 30 min prior to addition of 50 μl (5 nM) FITC-Bid BH3 peptide. The final DMSO concentration was 5% when the reactions brought to fall volume of 100 μl. Fluorescence polarization was measured after 10 min. Compounds that reduced the fluorescence polarization by 50% were considered hits.

Row | Compound | % Activity [%] | FRatio
1 | CSc1nnc(-c2ccco2)c(-c2ccco2)n1 [Compound 859770] | 107 | 0.53
2 | Cc1c[nH]c2cccc(OCC(O)CNC(C)(C)C)c12 (stereo not drawn) [Compound 856249] | 52.2 | 0.65
3 | Cc1nc2ccc(C(=O)O)cc2c2c1CC(C)S2 (stereo not drawn) [Compound 4259932] | 54.7 | 0.6
4 | CC(=O)c1sc2nc(SCC(=O)N3CCCCC3)nc(O)c2c1C [Compound 4259313] | 57 | 0.82
5 | Cc1csc(N/N=C/c2ccc(O)c([N+](=O)[O-])c2)n1 [Compound 14746238] | 57.1 | 0.84
6 | O=C(COC(=O)c1cncc(Br)c1)NCc1ccco1 [Compound 3715512] | 55.4 | 0.95
7 | CCC(=O)Nc1cccc(NC(C)=O)c1 [Compound 14746435] | 92.4 | 0.85
8 | O=C(COC(=O)C1CCN(S(=O)(=O)c2cc([N+](=O)[O-])ccc2Cl)CC1)Nc1ncc(Cl)cc1Cl [Compound 14744641] | 75.9 | 0.93
9 | Cc1ccc(-n2c(SCc3cc(=O)n4ccsc4n3)nnc2-c2cccnc2)c(C)c1 [Compound 3712302] | 80.3 | 0.96
10 | Nc1ccc(N2CCN(C(=O)c3cccs3)CC2)cc1 [Compound 14726238] | 57.8 | 0.87
11 | COc1cccc(N2CCN(Cc3ccsc3)CC2)c1 [Compound 14746122] | 56.1 | 0.85
12 | COCCN1CCN2C(=NC3CC(NC(=O)NC4CCCCC4)CCC32)C1 (stereo not drawn) [Compound 865452] | 79.7 | 0.73
13 | Cc1cc(C)c(I)c(S(=O)(=O)N2CCC(C(=O)OCC(=O)N3c4ccccc4NC(=O)C3(C)C)CC2)c1C [Compound 16952989] | 72.9 | 0.93
14 | Cc1cccc2cc(C(c3nnnn3C(C)(C)C)N(Cc3ccco3)CC3CCCO3)c(O)nc12 (stereo not drawn) [Compound 14720806] | 64.5 | 0.95
15 | CN(C)CCSc1nc(N)c2c3c(sc2n1)CN(C)CC3 [Compound 862887] | 72.8 | 0.98
16 | Cc1cc(N)ccc1N1CCCC1 [Compound 14744983] | 86.5 | 0.71
17 | Cc1cc(C)c2cc3c(ccn3C3OC[C@H](O)[C@H](O)[C@H]3O)cc2n1 (stereo partly drawn) [Compound 4247900] | 52.1 | 1.1

Row | Compound | % Activity [%] | FRatio
18 | Cc1cc2c(cc1C)NC(c1c(C)n(C)n(-c3ccccc3)c1=O)C1=C(O)CC(C)(C)CC1=N2 (stereo not drawn) [Compound 4265815] | 58.3 | 1.46
19 | CCn1c(SCC(=O)O)nc2sc3c(c2c1=O)CCC3 [Compound 856717] | 83 | 0.85
20 | COc1ccc(S(=O)(=O)N2CCCC2C(=O)Nc2nnc(-c3cccnc3)s2)cc1 (stereo not drawn) [Compound 3713012] | 50.9 | 0.9
21 | c1nnnn1C12CC3CC(CC(C3)C1)C2 [Compound 14725293] | 60.7 | 0.98
22 | Cc1ccc(-c2nnc(S)n2/N=C/C=C/c2ccccc2[N+](=O)[O-])cc1 [Compound 14729394] | 55.5 | 0.81
23 | Cc1ccc2c(Cl)cc(Cl)c(OCC(=O)NCc3ccco3)c2n1 [Compound 14747102] | 56.5 | 0.8
24 | COc1ccc(OC)c(NC(=O)CCN2CCC(C)CC2)c1 [Compound 846609] | 73 | 0.65
25 | CC(=O)c1c(CC(=O)O)nn(-c2nc3ccccc3s2)c1O [Compound 14746319] | 69 | 0.7
26 | CN(C)c1ccc(NC(=O)Cn2cc3c(n2)CCCC3)cc1 [Compound 7968138] | 57.6 | 0.56
27 | C=CCSc1nnc2nc3c(nn12)c1cc(C)ccc1n3CC=C [Compound 7973953] | 69.4 | 0.82
28 | CCC1=NNc2cccc3c(OC)ccc1c23 [Compound 14740154] | 83.6 | 1
29 | Cc1nc(NC(=O)c2ccco2)sc1-c1csc(Nc2ccc(Cl)cc2Cl)n1 [Compound 17410012] | 54.4 | 0.7
30 | Cc1ccc(C)n1-c1sccc1C(=O)O [Compound 14729511] | 80 | 0.77
31 | Cc1csc2nc(CNS(=O)(=O)N(C)C)cn12 [Compound 7970333] | 53.8 | 0.96
32 | Oc1ccc(C2=Nn3c(nnc3-c3ccco3)SC2)cc1O [Compound 17401638] | 56.6 | 0.82
33 | COC(=O)c1cccc(NC(=O)CSc2nc(C)cc(O)n2)c1 [Compound 4262437] | 59.9 | 0.64

Results, then the compound that gave them:

Row | % Activity [%] | FRatio | Compound
34 | 56.3 | 1.09 | Cc1ccccc1NC(=O)CSc1nnc(-c2ccco2)c(-c2ccco2)n1 [Compound 14742395]
35 | 63.5 | 0.88 | Cc1c(NC(=O)c2cc3nc(-c4ccccc4)cc(C)n3n2)c(=O)n(-c2ccccc2)n1C [Compound 844334]
36 | 76.5 | 0.84 | COc1cc(CNCCc2c[nH]c3ccccc23)ccc1OCc1ccc(F)cc1 [Compound 17386700]
37 | 69.5 | 0.83 | Cc1ccc(-n2nc3ccc(NC(=O)c4ccc5c(c4)OCO5)cc3n2)cc1 [Compound 14732083]
38 | 88.5 | 0.81 | COc1ccc(-c2nc3n(n2)C(c2cccnc2)C(C(N)=O)=C(C)N3)cc1 (stereo not drawn) [Compound 4250160]
39 | 76.1 | 0.72 | Cc1cccc(OCC(=O)Nc2ccc(N3CCCC3)cc2)c1C [Compound 7975075]
40 | 75.1 | 0.43 | O=C(CSc1n[nH]c(-c2ccccc2)n1)c1ccc(O)c(O)c1 [Compound 851690]
41 | 74.2 | 0.79 | CCc1ccccc1NC(=O)c1cc2ncc(Br)cn2n1 [Compound 14733824]
42 | 63.2 | 0.83 | Nc1nc(-c2ccco2)nn1C(=O)CCc1ccccc1 [Compound 4254649]
43 | 78.1 | 0.86 | CCOC(=O)N1CCN(c2cc(NCCC(=O)O)c3c4c(onc24)-c2ccccc2C3=O)CC1 [Compound 4252106]
44 | 57.9 | 0.72 | O=C(C[n+]1ccc(C(=O)N/N=C/c2ccc(O)cc2)cc1)c1ccccc1 [Compound 14746260]
45 | 59.7 | 0.75 | COc1ccc2c(c1)c(=O)oc1cc(OCC(=O)N3CCc4ccccc4C3)ccc12 [Compound 14730322]
46 | 89.5 | 1.15 | CCOC(=O)c1ccc(NC2=CC(=O)C(=O)c3ccccc32)cc1 [Compound 14737410]
47 | 68.6 | 0.84 | O=C(N/N=C1\C(=O)c2cccc3cccc1c23)c1ccc(Cl)cc1 [Compound 16953557]
48 | 50.8 | 0.88 | Cc1ccccc1C1C(=O)c2sc3nc4c(c(=O)n3c2C1=O)CCC4 (stereo not drawn) [Compound 7977096]
